Reference: patent US10722547B2, “Compositions of medicinal plants for reducing the effects of aging, prevention and treatment of age-related neurodegenerative diseases, and treatment of anxiety and sleep disorders” (PharmacoGenetics Limited, priority 2016, dated 2020)

What was measured:
D-galactose treated mice = test: Loss of whiskers induced by D-galactose treatment; format: in vivo, male ICR mice; settings: D-galactose 150 mg/kg daily with or without 120 mg/kg oral extract, 8 weeks; N=12 mice/group
Procedure: Chronic exposure to D-galactose is a widely studied aging model that causes shortened lifespan in Drosophila and housefly (Jordens et al 1999; Cui et al 2004), and brings about spatial memory deficit, degeneration in the hippocampus and increased oxidative damage in a D-galactose-induced accelerated-aging model of the mouse (Cui et al 2006). […] In the present study, this D-galactose model was applied to 10 week old male ICR mice (n=8-12 per group). The mice were administered daily with 150 mg/kg D-galactose by subcutaneous injection, accompanied by either daily oral administration of the vehicle (0.9% NaCl) in the D-galactose treated control group (“D-gal”), or daily oral administration of one of the BYPA, BYP, BYA, BPA, YPA, BY, BP and YP herbal extracts (120 mg/kg), for an exposure period of 8 weeks. […] The resultant levels of accelerated aging in the D-gal group, the various herbal extract-treatment groups, and the Veh group were assessed at the end of the 8-week exposure period based on five criteria: (i) body weight; (ii) deficit in spatial memory in the Y-maze test; (iii) levels of the pro-inflammatory cytokine TNF-alpha in the brain; (iv) levels of the pro-inflammatory cytokine IL-6 in the brain; and (v) levels of the oxidative stress marker MDA in the brain. […]

[1] = test system: D-galactose treated animals; settings: cited from earlier work
mice [2] = test: Step-through passive avoidance test; format: in vivo, male ICR mice; settings: diazepam at 1 or 3 mg/kg oral; p<0.001 vs vehicle
Procedure: Step-through passive avoidance test. Mice randomly separated into groups (n=15−20/group) were orally administered with vehicle (“Veh”, viz. 0.9% NaCl), 1 or 3 mg/kg DZ, or 120 mg/kg of one of the one-, two-, three- or four-herb extracts 35 minutes prior to training trials. The apparatus consisted of a two-chamber box (from Chinese Academy of Chinese Medical Science, Beijing) with one of the chambers being opaque (darkened) and the other transparent (lighted). In the training trials, each mouse was placed into the lighted chamber, and the door connecting the lighted and darkened chambers was opened 10 seconds later. […] In the actual test, after the mouse entered the darkened chamber, the door was closed and a 2-second electric foot shock of 0.4 mA was delivered through the grid floor. Ten seconds later the mouse was transferred from the darkened chamber back to its home cage. After an interval of 24 hours, it was returned to the lighted chamber. The door to the darkened chamber was opened 10 seconds later, and the time taken for the mouse to enter the darkened chamber was recorded as the ‘step-through latency’, with cut-off set at 300 seconds. A significant decrease in step-through latency observed with any group of animals compared to Veh-treated controls was indicative of impaired […] in the form of anterograde amnesia (Nazari-Serenj eh et al, 2011).

mice [3] = test: Locomotor activity test; format: in vivo, male ICR mice; settings: 3 mg/kg diazepam oral; p<0.001 vs vehicle
Procedure: Locomotor activity test. Following the elevated plus-maze and holeboard tests, the Veh-treated mice, DZ-treated mice and variously herbal extract-treated mice were assessed for locomotor activity by means of the ZIL-2 apparatus (Beijing Institute of Materia Medica). The test apparatus, with dimensions of 60 cm×60 cm×12 cm, consisted of a transparent plastic cylindrical box equipped with three evenly spaced infrared beams with photodetectors. The number of transitions made across the infrared beams was recorded automatically over a period of 5 minutes. An increase or decrease in the number of transitions indicated a corresponding increase or decrease in the level of locomotor activity (Hui et al, 2002).

mice [4] = test: Rotarod test; format: in vivo, male ICR mice; settings: diazepam at 1 or 3 mg/kg oral; p<0.001 vs vehicle
Procedure: Rotarod test. Mice randomly separated into groups (n=15−20/group) were orally administered 35 minutes prior to the rotarod test with vehicle (“Veh”, viz. 0.9% NaCl), 1 or 3 mg/kg DZ, or 120 mg/kg of one of the one-, two-, three- or four-herb extracts. The rotarod test for muscle coordination was performed using a custom-built apparatus consisted of a cylinder (2.5 cm diameter) with a textured surface placed 0.5 m above the ground. Prior to oral Veh, DZ or herbal extract administration, the mice were first trained to stay for 2 min on the rotarod revolving at 16 rpm. In the test, the effect of Veh, DZ or herbal extract treatment was examined by placing the mouse on the rotarod and recording the length of time it managed to stay on the rotarod, with cut-off set at 2 min.

## O=C[C@H](O)[C@@H](O)[C@@H](O)[C@H](O)CO [D-gal, D-galactose]
D-galactose treated mice
  Loss of whiskers (% mice) 0 (no loss of whiskers): 50 % mice
  Loss of whiskers (% mice) + (loss of whiskers): 50 % mice

## O=C(O)CCCC[C@@H]1CCSS1 [R-α-lipoic acid]
[1]; 100 mg/kg i.p., Cui 2006
  cognitive dysfunction and neurodegeneration: can ameliorate

## C[C@H]1[C@H](C)CC[C@]2(C(=O)O)CC[C@]3(C)C(=CC[C@@H]4[C@@]5(C)C[C@@H](O)[C@H](O)[C@@](C)(CO)[C@@H]5CC[C@]43C)[C@H]12 [asiatic acid]
[1]; oral, 10 or 20 mg/kg, Chao et al 2015
  elevated levels of brain ROS, TNF-alpha and IL-6: can reduce

## CN1C(=O)CN=C(c2ccccc2)c2cc(Cl)ccc21 [diazepam, Diazepam]
Mice [2]
  step-through latency (anterograde amnesia): significant anterograde amnesia
Mice [3]
  locomotor activity: significant reduction
Mice [4]
  time of stay on the moving rotarod (muscle coordination): significant reduction

## CC(C)=CCC[C@](C)(O[C@@H]1O[C@H](CO)[C@@H](O)[C@H](O)[C@H]1O)[C@H]1CC[C@]2(C)[C@@H]1[C@H](O)C[C@@H]1[C@@]3(C)CC[C@H](O)C(C)(C)[C@@H]3[C@@H](O[C@@H]3O[C@H](CO)[C@@H](O)[C@H](O)[C@H]3O)C[C@]12C [ginsenoside Rg1]
[1]; 20 mg/kg i.p., Zhu et al 2014
  cognitive impairment and hippocampus senescence: can prevent
